In patent US10167306B2, “Crystalline form of 1-(beta-D-glucopyranosyl)-4-methyl-3-[5-(4-fluorophenyl)-2-thienylmethyl]benzene and preparation method thereof” (SHANGHAI DESANO PHARMACEUTICALS INVESTMENT CO., LTD, priority 2015, dated 2019):

Columns and labels:
[1] = Crystalline form competition experiment: 1:1 mixture of form W and hemihydrate form suspended in water, XRPD comparison; format: physicochemical
Protocol: (§1) X-ray powder diffraction instrument: Brucker D8 advance X-ray powder diffraction; radiation source: copper target (α=1.540600 Å), scanning at room temperature; voltage: 40 kv; Current: 40 mA; starting 2θ: 2.000°, scanning range: 2.0000-50.000°; step size: 0.020°; measuring time: 12.6 seconds/step.
Crystalline forms W of canagliflozin prepared in Examples 1-7 were mixed with the hemihydrate crystalline of canagliflozin (the product after crystallization) prepared in Example 1 in WO2008069327 in a ratio of 1:1, and the mixtures were suspended in water of 20° C. and 60° C. for 4 days, respectively.

[2] = Suspension of crystalline form W in water, XRPD comparison; format: physicochemical; settings: suspended in water of 20° C. and 60° C. for 4 days; form W prepared in Example 1; FIG. 5
Protocol: as §1
Crystalline forms W of canagliflozin prepared in Examples 1-7 were suspended in water of 20° C. and 60° C. for 4 days.

relative stability in the crystalline form competition experiments ([1]; versus hemihydrate crystalline form, 1:1 mixture in water of 20° C. and 60° C. for 4 days)	stability of crystalline form (XRPD pattern) after suspending in water [2]	SMILES	crystalline form transformation in the 1:1 mixture (XRPD pattern) ([1]; 1:1 mixture of form W (Example 1) and hemihydrate form of WO2008069327, suspended in water of 20° C. and 60° C. for 4 days, FIG. 6)
better stability	excellent stability	Cc1ccc([C@@H]2O[C@H](CO)[C@@H](O)[C@H](O)[C@H]2O)cc1Cc1ccc(-c2ccc(F)cc2)s1 [crystalline form W, 1-(β-D-glucopyranosyl)-4-methyl-3-[5-(4-fluorophenyl)-2-thienylmethyl]benzene]	
		Cc1ccc([C@@H]2O[C@H](CO)[C@@H](O)[C@H](O)[C@H]2O)cc1Cc1ccc(-c2ccc(F)cc2)s1 [hemihydrate crystalline form, 1-(β-D-glucopyranosyl)-4-methyl-3-[5-(4-fluorophenyl)-2-thienylmethyl]benzene, reference compound]	completely transformed into crystalline form W
